Results taken from PMC11079024, “Identification of a family of species-selective complex I inhibitors as potential anthelmintics” (Nature Communications, 2024).
pIC50: −log10 of the molar value. Like-named read-outs stand apart in the source and are kept apart here.

What was measured:
[1] = target: C. elegans (N2) complex I (NADH:ubiquinone oxidoreductase) (Caenorhabditis elegans, UniProt P24887+Q93873+Q94360); assay: biochemical; type: biochemical; settings: for activity at 0.0001 µM / activity at 0.0005 µM / activity at 0.001 µM / activity at 0.0025 µM / activity at 0.005 µM / activity at 0.013 µM / activity at 0.025 µM / activity at 0.063 µM / activity at 0.125 µM / activity at 0.313 µM / activity at 0.625 µM / activity at 1.5 µM / activity at 3 µM / activity at 15 µM / activity at 37.5 µM / activity at 75 µM: read-out: C. elegans mitochondrial complex I activity; for Log IC50 C. elegans complex I: log10 of IC50 in µM, C. elegans mitochondria
Sequence of C. elegans (N2) complex I (NADH:ubiquinone oxidoreductase) (Q94360 17-199): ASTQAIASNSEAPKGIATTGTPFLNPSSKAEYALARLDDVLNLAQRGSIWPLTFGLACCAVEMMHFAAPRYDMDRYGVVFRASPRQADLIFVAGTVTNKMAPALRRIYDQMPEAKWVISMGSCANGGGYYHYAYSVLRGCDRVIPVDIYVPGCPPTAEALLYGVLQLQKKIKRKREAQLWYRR
Sequence of C. elegans (N2) complex I (NADH:ubiquinone oxidoreductase) (P24887 whole entry): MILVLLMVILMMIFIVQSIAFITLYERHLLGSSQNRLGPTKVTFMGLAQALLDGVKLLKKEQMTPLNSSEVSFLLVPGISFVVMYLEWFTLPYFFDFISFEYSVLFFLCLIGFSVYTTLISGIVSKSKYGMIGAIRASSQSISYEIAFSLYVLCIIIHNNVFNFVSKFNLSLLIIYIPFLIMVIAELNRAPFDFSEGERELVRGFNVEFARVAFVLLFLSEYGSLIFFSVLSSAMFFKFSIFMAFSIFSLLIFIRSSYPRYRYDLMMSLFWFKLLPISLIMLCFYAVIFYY
Sequence of C. elegans (N2) complex I (NADH:ubiquinone oxidoreductase) (Q93873 31-482): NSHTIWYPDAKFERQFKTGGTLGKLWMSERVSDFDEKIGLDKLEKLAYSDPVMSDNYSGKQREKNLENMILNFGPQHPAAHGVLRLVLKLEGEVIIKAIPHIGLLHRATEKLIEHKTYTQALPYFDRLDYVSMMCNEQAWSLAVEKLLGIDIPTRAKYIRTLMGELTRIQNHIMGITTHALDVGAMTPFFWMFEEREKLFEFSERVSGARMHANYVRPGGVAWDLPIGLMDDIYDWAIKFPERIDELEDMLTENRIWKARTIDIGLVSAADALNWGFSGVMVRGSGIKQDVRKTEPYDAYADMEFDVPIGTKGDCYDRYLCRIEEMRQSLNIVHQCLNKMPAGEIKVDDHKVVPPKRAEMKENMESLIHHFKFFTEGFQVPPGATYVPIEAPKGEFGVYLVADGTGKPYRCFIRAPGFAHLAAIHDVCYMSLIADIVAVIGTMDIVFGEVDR
Outline: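 Compounds were tested against freeze-thawed isolated mitochondria (0.2 mg/mL protein). NADH:decylubiquinone activity was monitored via DCIP absorbance at 600 nm, and the initial linear slope was normalised to solvent controls.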

[2] = target: B. taurus (heart) complex I (Bos taurus, UniProt P03887+P17694+P42026); assay: biochemical; type: biochemical; settings: for pIC50: B. taurus heart mitochondria, read-out: B. taurus Complex I IC50; for activity at 0.0001 µM / activity at 0.0005 µM / activity at 0.001 µM / activity at 0.0025 µM / activity at 0.005 µM / activity at 0.013 µM / activity at 0.025 µM / activity at 0.063 µM / activity at 0.125 µM / activity at 0.313 µM / activity at 0.625 µM / activity at 1.5 µM / activity at 3 µM / activity at 15 µM / activity at 37.5 µM / activity at 75 µM: read-out: B. taurus mitochondrial complex I activity; for Log IC50 B. taurus complex I: log10 of IC50 in µM, B. taurus mitochondria
Sequence of B. taurus (heart) complex I (P03887 whole entry): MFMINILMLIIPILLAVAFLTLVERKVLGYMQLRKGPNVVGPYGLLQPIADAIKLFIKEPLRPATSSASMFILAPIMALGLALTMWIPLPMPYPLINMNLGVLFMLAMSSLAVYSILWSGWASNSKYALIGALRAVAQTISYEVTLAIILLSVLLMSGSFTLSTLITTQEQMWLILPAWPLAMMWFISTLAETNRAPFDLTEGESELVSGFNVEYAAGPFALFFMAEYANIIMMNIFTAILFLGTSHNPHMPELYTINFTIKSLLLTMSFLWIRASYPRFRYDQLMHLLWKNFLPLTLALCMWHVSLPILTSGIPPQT
Sequence of B. taurus (heart) complex I (P17694 34-463): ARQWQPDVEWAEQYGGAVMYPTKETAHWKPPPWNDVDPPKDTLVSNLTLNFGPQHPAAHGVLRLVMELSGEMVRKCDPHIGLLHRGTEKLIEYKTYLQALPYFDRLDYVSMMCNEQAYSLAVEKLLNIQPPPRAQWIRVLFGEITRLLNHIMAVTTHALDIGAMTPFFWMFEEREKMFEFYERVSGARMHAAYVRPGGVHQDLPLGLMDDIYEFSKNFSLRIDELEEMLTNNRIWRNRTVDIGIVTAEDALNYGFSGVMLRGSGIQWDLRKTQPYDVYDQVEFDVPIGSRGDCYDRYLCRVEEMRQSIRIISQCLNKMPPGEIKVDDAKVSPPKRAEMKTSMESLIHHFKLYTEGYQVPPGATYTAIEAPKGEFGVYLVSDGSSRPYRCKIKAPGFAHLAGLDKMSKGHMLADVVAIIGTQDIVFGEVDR
Sequence of B. taurus (heart) complex I (P42026 38-216): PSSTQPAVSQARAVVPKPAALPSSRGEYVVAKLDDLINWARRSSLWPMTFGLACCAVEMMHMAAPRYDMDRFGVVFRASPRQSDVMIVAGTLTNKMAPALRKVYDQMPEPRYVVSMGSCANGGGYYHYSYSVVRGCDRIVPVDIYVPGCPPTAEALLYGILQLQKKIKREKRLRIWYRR
Outline: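 Complex I activity followed as DCIP reduction (600 nm, 30 s reads, 15 min) with 80 μM NADH and 60 μM decylubiquinone in 25 mM KPi pH 7.5 containing 2 μM antimycin A and 2 mM KCN. Freeze-thawed mouse or bovine heart mitochondria at 0.2 mg/mL; initial-rate percent of solvent control, single-point 100 μM or dose-response.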

L1 wild-type C. elegans = assay: microbe, parasite or virus in culture; settings: Caenorhabditis elegans, read-out: C. elegans KCN Survival Assay LC50, estimated from fitted dose-response curves; mean of at least two biological replicates
[3] = in vitro complex I dose response on C. elegans mitochondria, average of at least two biological replicates, fit in R (DRC), read-out: IC50 C. elegans complex I
[4] = wild-type C. elegans mitochondria, read-out: C. elegans Complex I IC50

SMILES	activity at 0.0001 µM [1]	activity at 0.0005 µM [1]	activity at 0.001 µM [1]	activity at 0.0025 µM [1]	activity at 0.005 µM [1]	activity at 0.013 µM [1]	activity at 0.025 µM [1]	activity at 0.063 µM [1]	activity at 0.125 µM [1]	activity at 0.313 µM [1]	activity at 0.625 µM [1]	activity at 1.5 µM [1]	activity at 3 µM [1]	activity at 15 µM [1]	activity at 37.5 µM [1]	activity at 75 µM [1]	pIC50 [1, 3]	Log IC50 C. elegans complex I [1]	activity at 0.0001 µM [2]	activity at 0.0005 µM [2]	other results
Clc1ccc(Cn2cnc3ccccc32)c(Cl)c1 [Compound 6750659]	89.4%	104%	101%	110%	103%	98.1%	98.4%	84.8%	79.5%	62.1%	45.6%	24.9%	16.1%	4.66%	3.82%	5.12%	6.35	-0.35 µM	93.1%	93.8%	pIC50 ([1]; wild-type (N2) mitochondria, read-out: C. elegans Complex I IC50): 6.35; pIC50 ([1]; wild-type C. elegans mitochondria, estimated from fitted dose-response curves, read-out: C. elegans Complex I IC50): 6.35; pIC50 ([2]; estimated from fitted dose-response curves): 5.59; activity at 0.001 µM [2]: 91.7%; activity at 0.0025 µM [2]: 100%; activity at 0.005 µM [2]: 91.7%; activity at 0.013 µM [2]: 94.7%; activity at 0.025 µM [2]: 92.7%; activity at 0.063 µM [2]: 89.8%; activity at 0.125 µM [2]: 83.5%; activity at 0.313 µM [2]: 77.1%; activity at 0.625 µM [2]: 78.3%; activity at 1.5 µM [2]: 60.6%; activity at 3 µM [2]: 42.8%; activity at 15 µM [2]: 8.04%; activity at 37.5 µM [2]: 1.6%; activity at 75 µM [2]: 1.94%; Log IC50 B. taurus complex I [2]: 0.41 µM; LC50 (L1 wild-type C. elegans): 4.28 µM
Cc1ccc(OCCn2cnc3ccccc32)cc1 [Compound 5671538]	97.2%	96.5%	95.3%	106%	90.9%	104%	98%	92.5%	91.2%	90%	88.7%	79.2%	75%	18.9%	23.9%	13.8%	5.27	0.73 µM	94.3%	97.5%	pIC50 [1, 4]: 5.27; pIC50 [2]: 4.76; activity at 0.001 µM [2]: 95.2%; activity at 0.0025 µM [2]: 100%; activity at 0.005 µM [2]: 98.6%; activity at 0.013 µM [2]: 95.8%; activity at 0.025 µM [2]: 97.5%; activity at 0.063 µM [2]: 95%; activity at 0.125 µM [2]: 89.3%; activity at 0.313 µM [2]: 91.3%; activity at 0.625 µM [2]: 85.9%; activity at 1.5 µM [2]: 84.9%; activity at 3 µM [2]: 86.7%; activity at 15 µM [2]: 57.1%; activity at 37.5 µM [2]: 33.8%; activity at 75 µM [2]: 14.5%; Log IC50 B. taurus complex I [2]: 1.24 µM; LC50 (L1 wild-type C. elegans): 28.3 µM
Cc1nc2ccccc2n1CCOc1ccccc1 [Compound 5550112]	88.8%	84.9%	88.8%	93.8%	86.7%	87.2%	83.3%	78.1%	80.5%	78%	89.4%	71.3%	60.5%	24.9%	11.1%	5.83%	5.24	0.76 µM	101%	97.8%	pIC50 [1, 4]: 5.24; pIC50 [2]: 5.01; activity at 0.001 µM [2]: 105%; activity at 0.0025 µM [2]: 102%; activity at 0.005 µM [2]: 103%; activity at 0.013 µM [2]: 98.3%; activity at 0.025 µM [2]: 99.2%; activity at 0.063 µM [2]: 91.8%; activity at 0.125 µM [2]: 95.1%; activity at 0.313 µM [2]: 92.8%; activity at 0.625 µM [2]: 96.9%; activity at 1.5 µM [2]: 85.2%; activity at 3 µM [2]: 74.2%; activity at 15 µM [2]: 36.6%; activity at 37.5 µM [2]: 16.7%; activity at 75 µM [2]: 5.1%; Log IC50 B. taurus complex I [2]: 0.99 µM; LC50 (L1 wild-type C. elegans): 32.9 µM
